# Results taken from patent publication US20050208147A1, “Isolation of bivittoside D from sea cucumber and activity thereof” (Council of Scientific and Industrial Research, priority 2004, published 2005).
# Experiments:
# [1] = system: human spermatozoa; assay: Spermicidal activity in vitro, Sander Cramer assay; type: cell-based
# Method: The spermicidal activity was determined by the Sander Cramer assay (Sander, F. V., Cramer, S. D., Human Fertility, (1941) Vol. 6, p-134) using physiological saline (0.85% NaCl). Aqueous solutions (1.0% i.e. 10 mg/ml) of different fractions of B. vitiensis were prepared in physiological saline, which were diluted further up to a concentration of 0.01%. Human semen (0.2 ml) was mixed with each test solution (1.0 ml) separately and vortexed for 10 s. A wet mount of each preparation was immediately examined under a phase contrast microscope. The lowest spermicidal concentration that completely immobilized 100% of the spermatozoa within 20 s. was referred to as MEC (minimum effective concentration). The activity was confirmed in three different semen samples with >50×10^6/ml sperm count and >50% motility.
# [2] = system: Candida albicans; assay: In vitro antifungal MIC, broth micro-dilution (NCCLS M-27A); type: cell-based
# Method: (§1) Extracts/fractions/pure compounds obtained from B. vitiensis were tested in in-vitro antifungal activity against five pathogenic fungi in terms of minimum inhibitory concentration (mic,mg/ml) following reference methods. Mics for yeasts: Candida albicans (ca), Cryptococcus neoformans (cn) and Sporothrix schenckii (spo) were determined by broth micro-dilution method according to guide lines of nccls documents m-27a1 (National Committee for Clinical Standards (1997) reference method for broth dilution. Antifungal susceptibility testing of yeast approved standards document m-27a, nccls, wayne, Pa.) In RPMI-1640 medium buffered at pH 7.0 with 0.165 m morpholine propane sulphonic acid (mops: Sigma USA moris; Mo.). Assays were performed in flat bottomed 96 wells microlitre plate. Stock solution of products were prepared in DMSO and diluted by two-fold serial dilution. The working suspension (0.5×103 to 2.5×103) of the innoculum, prepared spectrophotometrically (0.5 mc Farland turbidity standard) was made by a 1:50 dilution followed by a 1:20 dilution of the seeded broth in RPMI-1640. Suitable controls were maintained simultaneously. Plates were incubated at 35° C. and observed visually at 24 hr for ca and 48 hr cn and spo. The susceptibilities of molds Aspergillus fumigatus (af) and Frichophyton mentagrophytes (tm) were determined by the NCCLS proposed document m-38p2 (National Committee for Clinical laboratory Standards (1997) reference method for broth dilution antifungal susceptibility testing of Aspergillus, proposed standards document m-38 p, nccls, wayne, Pa.). In brief, cultures were grown on sabouraud dextrose agar at 35° C. until sporulation occurred. Spores were suspended in 0.85% normal saline and diluted in RPMI-1640 to yield 104 cf p/ml.
# [3] = system: Cryptococcus neoformans; assay: as above; type: cell-based
# Method: as §1
# [4] = system: Sporothrix schenckii; assay: as above; type: cell-based
# Method: as §1
# [5] = system: trichophyton mentagrophytes; assay: In vitro antifungal MIC for molds (NCCLS M-38P); type: cell-based
# Method: as §1, with “The working suspension (0.5×103 to 2.5×103) of the innoculum, prepared spectrophotometrically (0.5 mc Farland turbidity standard) was made by a 1:50 dilution followed by a 1:20 dilution of the seeded broth in RPMI-1640. Suitable controls were maintained simultaneously. Plates were incubated at 35° C. and observed visually at 24 hr for ca and 48 hr cn and spo.” left out, “In brief, cultures were grown on sabouraud dextrose agar at 35° C. until sporulation occurred. Spores were suspended in 0.85% normal saline and diluted in RPMI-1640 to yield 104 cf p/ml.” left out
# [6] = system: Aspergillus fumigatus; assay: In vitro antifungal MIC for molds (NCCLS M-38P); type: cell-based; design: mic against af: unit not given here
# Method: as §1, with “The working suspension (0.5×103 to 2.5×103) of the innoculum, prepared spectrophotometrically (0.5 mc Farland turbidity standard) was made by a 1:50 dilution followed by a 1:20 dilution of the seeded broth in RPMI-1640. Suitable controls were maintained simultaneously. Plates were incubated at 35° C. and observed visually at 24 hr for ca and 48 hr cn and spo.” left out, “In brief, cultures were grown on sabouraud dextrose agar at 35° C. until sporulation occurred. Spores were suspended in 0.85% normal saline and diluted in RPMI-1640 to yield 104 cf p/ml.” left out
# [7] = system: Aspergillus niger, A. oryzae, Penicillium citrinum, P. chrysogenum, Mucor spinescens, Cladosporium herbarium, Rhodotorula rubra, Trichophyton mentagrophytes, T.; conditions: panel of eleven fungi; literature report; cited from earlier work
# [8] = read at 48 hr, tested at 1000-1.95 mg/ml
substance,measurement,setting,value
Bivittoside-D [K007],spermicidal activity (in words),[1]; in vitro model,promising spermicidal
same,Mec (minimum effective concentration),[1]; lowest concentration that completely immobilized 100% of human spermatozoa within 20 s,0.05%
same,mic against ca,[2],3.12 µg/mL
same,"Mics against pathogenic fungi, ca","[2]; read at 24 hr, tested at 1000-1.95 mg/ml",3.12 μg/mi.
same,mic against cn,[3],6.25 mg/mL
same,"Mics against pathogenic fungi, Cn",[3]; [8],6.25 μg/mi.
same,mic against spo,[4],6.25 mg/mL
same,"Mics against pathogenic fungi, spo",[4]; [8],1.56 μg/mi.
same,mic against tm,[5],1.56 mg/mL
same,"Mics against pathogenic fungi, tm",[5]; tested at 1000-1.95 mg/ml,1.56 μg/mi.
same,mic against af,[6]; Aspergillus fumigatus,12.57
same,"Mics against pathogenic fungi, Af","[6]; aspergillus fumigates, tested at 1000-1.95 mg/ml",12.5 μg/mi.
same,antifungal activities (in words),[7],significant antifungal activities
